Usually IC50 stands for the concentration that inhibits the measured activity by half. What is called EC50 is the concentration at which the effect is half-maximal.

One test relates to Human Thrombocytes. The experiment in a line: Fibrinogen Binding to Human Thrombocytes (I125-fibrinogen, gel-filtered platelets). To be noted: inhibition of I125-fibrinogen binding to gel-filtered human platelets, ADP, 20 minutes, ambient temperature; read-out: Fibrinogen Binding test IC50. On the procedure: 1. Fibrinogen Binding to Human Thrombocytes Blood obtained by puncture of an antecubital vein was anticoagulated with trisodium citrate (final concentration: 13 mM) and centrifuged for 10 minutes at 170 *g. The supernatant platelet-rich plasma was placed on a Sepharose 2B column (Pharmacia) and eluted with a solution of 90 mM common salt, 14 mM trisodium citrate, 5 mM glucose and 50 mM tris(hydroxymethyl)aminomethane, adjusted to pH 7.4. The gel-filtered platelets (GFP) appearing in front of the plasma proteins were used for the binding tests. 50 μl of a 60 mM calcium chloride solution, 50 μl of a 0.6 mM adenosine diphosphate solution, 100 μl of substance solution or solvent and 50 μl of fibrinogen solution (containing 3 μg I125-fibrinogen) were added to 750 μl of GFP and incubated for 20 minutes at ambient temperature. The non-specific binding was measured in the presence of 3 mg/ml of cold fibrinogen. 900 μl of the incubate were carefully pipetted onto 250 μl of silicon oil (AP 38: AR 20, 1:2 v/v, Wacker Chemie) in Eppendorf vessels and centrifuged for 2 minutes at 10,000 *g. The aqueous supernatant and some of the oil were removed, the tip of the vessel with the platelet pellet was cut off and the quantity of bound fibrinogen was measured in a gamma-counter. The concentration of substance which inhibited fibrinogen binding by 50% was calculated from a series of concentrations and given as the IC50.

The subject of test [1] is thrombocyte aggregation in platelet-rich plasma. The experiment in a line: Antithrombotic effect: collagen-induced thrombocyte aggregation in platelet-rich plasma (Born and Cross). Type of test: cell-based. To be noted: human platelet-rich plasma, 10 minutes preincubation at 37° C., read-out: Inhibition of platelet aggregation EC50. On the procedure: 2. Antithrombotic Effect Method: The thrombocyte aggregation was measured in platelet-rich plasma from healthy test subjects using the Born and Cross method (J. Physiol. 170: 397 (1964)). In order to inhibit coaggulation the blood was mixed with 3.14% sodium citrate in a ratio by volume of 1:10. Collagen-induced aggregation: The decrease in the optical density of the platelet suspension was measured photometrically and recorded after the addition of the aggregation-initiating substance. The speed of aggregation was concluded from the angle of inclination of the density curve. The point on the curve at which there was maximum transmittance was used to calculate the optical density. The quantity of collagen used was as little as possible but sufficient to give an irreversible reaction curve. Standard commercial collagen produced by Hormonchemie of Munich was used. Before the addition of collagen the plasma was incubated with the substance for 10 minutes at 37° C. From the measurements obtained, an EC50 was determined graphically, relating to a 50% change in the optical density in terms of inhibiting aggregation.

Each structure is given as a SMILES string. Where a name gives a salt, the structure may show the parent alone.

On to `COC(=O)CCn1cc(-c2ccc(-c3ccc(C(=N)N)cc3)cc2)n(-c2ccccc2)c1=O` [2(106), 4-(4'-amidino-4-biphenylyl)-1-(2-methoxycarbonyl-ethyl)-3-phenyl-3H-imidazol-2-one hydrochloride], for which the IC50 in the test with Human Thrombocytes amounted to 2700 nM. Also, in test [1], the concentration giving a half-maximal response (EC50) is 6600 nM.
On the same counts, the results for `N=C(N)c1ccc(N2CCN(c3ccc(SCC(=O)O)cc3)C2=O)cc1` [1(48), 1-(4-amidino-phenyl)-3-(4-carboxymethylthiophenyl)-imidazolidin-2-one] are 210 nM and 1100 nM.
In the case of `CCc1nn(-c2ccc(C(=N)N)cc2)c(=O)n1-c1ccc(CCC(=O)O)cc1` [1(140), 2-(4-amidino-phenyl)-4-[4-(2-carboxy-ethyl)-phenyl]-5-ethyl-4H-1,2,4-triazol-3-one], in the test on Human Thrombocytes, the IC50 was 21 nM. Also, the 50% effective concentration (EC50) in test [1] is 30 nM.
As for `N=C(N)c1ccc(-c2ccc(-c3cn(CCC(=O)O)c(=O)n3-c3ccccc3)cc2)cc1` [1(119), 4-(4'-amidino-4-biphenylyl)-1-(2-Carboxy-ethyl)-3-phenyl-3H-imidazol-2-onehydrochloride], the IC50 in the test on Human Thrombocytes turned out to be 210 nM. Moreover, the EC50 in test [1] was found to be 730 nM.
The corresponding values for `COC(=O)CCN1CCN(C2CCN(c3ccc(C(=N)N)cc3)CC2)C1=O` [4(11), 1-[1-(4-amidino-phenyl)-4-piperidinyl]-3-(2-methoxycarbonyl-ethyl)-imidazolidin-2-one hydrochloride] are 45000 nM and 2300 nM.
For `CCOC(=O)CCN1C(=O)CN(c2ccc(-c3ccc(C(=N)N)cc3)cc2)C1=O` [2(2), 1-(4'-amidino-4-biphenylyl)-3-(2-ethoxycarbonyl-ethyl)-imidazolidin-2,4-dione hydrochloride], the 50% inhibitory concentration (IC50) in the test on Human Thrombocytes was found to be 25000 nM. Further, the EC50 in test [1] was 630 nM.
With `N=C(N)c1ccc(N2CCN(CCCCC(=O)O)C2=O)cc1` [1(77), -(4-amidino-phenyl)-3-(4-carboxy-butyl)-imidazolidin-2-one], in the test with Human Thrombocytes, the IC50 was 4900 nM. The EC50 in test [1] worked out at 8000 nM.
On the same counts, the results for `COC(=O)CCc1ccc(N2CCCN(c3ccc(CN)cc3)C2=O)cc1` [8(1), 1-(4-aminomethyl-phenyl)-3-[4-(2-methoxycarbonyl-ethyl)-phenyl]-3,4,5,6-tetrahydro-1H-pyrimidin-2-one hydrochloride] are 68000 nM and 21000 nM.
The corresponding values for `COC(=O)CCc1ccc(N2CCN(c3ccc(C(C)N)cc3)C2=O)cc1` (stereo not shown) [Example 31, 1-[4-(1-Amino-ethyl)-phenyl]-3-[4-(2-methoxycarbonyl-ethyl)-phenyl]-imidazolidin-2-one hydrochloride] are 250 nM and 500 nM.
On the same counts, the results for `N=C(N)c1ccc(N2CCN(CCNCC(=O)O)C2=O)cc1` [1(82), 1-(4-amidino-phenyl)-3-(2-carboxymethylaminoethyl)-imidazolidin-2-one] are 17000 nM and 29000 nM.
Consider `N=C(N)c1ccc(N2CC(=O)N(c3ccc(CCC(=O)O)cc3)C2=O)cc1` [1(62), 1-(4-amidino-phenyl)-3-[4-(2-carboxy-ethyl)-phenyl]-imidazolidin-2,4-dione], for which the IC50 in the test on Human Thrombocytes is 13 nM. Further, the concentration giving a half-maximal response (EC50) in test [1] turned out to be 40 nM.
For the compound `N=C(N)c1ccc(N2CCC(N3CCN(CCC(=O)O)C3=O)CC2)cc1` [1(24), 1-[1-(4-amidino-phenyl)-4-piperidinyl]-3-(2-carboxy-ethyl)-imidazolidin-2-one], the half-inhibitory concentration (IC50) in the test with Human Thrombocytes was found to be 470 nM. For the same compound, the EC50 in test [1] worked out at 1100 nM.
On the same counts, the results for `COC(=O)CCN1CCN(c2ccc(-c3ccc(C(=N)N)cc3)cc2)S1(=O)=O` [2(20), 2-(4'-amidino-4-biphenylyl)-5-(2-methoxycarbonyl-ethyl)-3,4-dihydro-2H,5H-1,2,5-thiadiazole-1,1-dioxide hydrochloride] are 5700 nM and 690 nM.
As for `COC(=O)CCc1ccc(-n2cnn(-c3ccc(C(=N)N)cc3)c2=O)cc1` [2(123), 2-(4-amidino-phenyl)-4-[4-(2-methoxycarbonyl-ethyl)-phenyl]-4H-1,2,4-triazol-3-one hydrochloride], in the test with Human Thrombocytes, the IC50 worked out at 3100 nM. The 50% effective concentration (EC50) in test [1] turned out to be 70 nM.
Consider `COC(=O)CCc1ccc(N2CCN(c3ccc(C(=N)NC(=O)OC)cc3)C2=O)cc1` [5(1), 1-(4-methoxycarbonylamidino-phenyl)-3-[4-(2-methoxycarbonyl-ethyl)-phenyl]-imidazolidin-2-one], for which the half-inhibitory concentration (IC50) in the test with Human Thrombocytes was greater than 100000 nM. Besides, in test [1], the EC50 is 20000 nM.
The corresponding values for `NCc1ccc(N2CCN(c3ccc(CC(N)C(=O)O)cc3)C2=O)cc1` (stereo not shown) [1(149), 1-[4-(2-amino-2-carboxy-ethyl)-phenyl]-3-(4-aminomethyl-phenyl)-imidazolidin-2-one] are 470 nM and 1300 nM.
As for `N=C(N)c1ccc(-c2ccc(-n3ccn(CCC(=O)O)c3=O)cc2)cc1` [1(3), 1-(4'-amidino-4-biphenylyl)-3-(2-carboxy-ethyl)-3H-imidazol-2-one], the IC50 with Human Thrombocytes was 190 nM. Also, the concentration for a half-maximal effect (EC50) in test [1] came to 1700 nM.
Consider `N=C(N)c1ccc(-n2ncn(-c3ccc(CCC(=O)O)cc3)c2=O)cc1` [1(145), 2-(4-amidino-phenyl)-4-[4-(2-carboxy-ethyl)-phenyl]-4H-1,2,4-triazol-3-one], for which the half-inhibitory concentration (IC50) in the test on Human Thrombocytes was determined as 7.7 nM. In addition, the EC50 in test [1] is 50 nM.
The corresponding values for `N=C(N)c1ccc(N2CCN(c3ccc([S+]([O-])CC(=O)O)cc3)C2=O)cc1` (stereo not shown) [1(49), 1-(4-amidino-phenyl)-3-(4-carboxymethylsulphinylphenyl)-imidazolidin-2-one] are 26 nM and 140 nM.
The corresponding values for `N=C(N)c1ccc(N2CCN(CCc3ccc(C(=O)O)cc3)C2=O)cc1` [1(55), 1-(4-amidino-phenyl)-3-[2-(4-carboxyphenyl)-ethyl]-imidazolidin-2-one] are 860 nM and 60000 nM.
For the compound `CC(C)(CC(=O)O)c1ccc(N2CCN(c3ccc(C(=N)N)cc3)C2=O)cc1` [1(51), 1-(4-amidino-phenyl)-3-[4-(3-carboxy-2-methyl-2-propyl)-phenyl]-imidazolidin-2-one], the IC50 with Human Thrombocytes was 3600 nM. Besides, in test [1], the concentration for a half-maximal effect (EC50) came out at 13000 nM.
Consider `N=C(N)c1ccc(-c2ccc(-c3cn(CCC(=O)O)c(=O)[nH]3)cc2)cc1` [1(117), 4-(4'-amidino-4-biphenylyl)-1-(2-carboxy-ethyl)-3H-imidazol-2-one hydrochloride], for which, in the test with Human Thrombocytes, the IC50 was 230 nM. For the same compound, the EC50 in test [1] turned out to be 5400 nM.
The corresponding values for `COC(=O)CCc1ccc(N2CCN(c3ccc4c(c3)CCC4N)C2=O)cc1` (stereo not shown) [31(1), 1-(1-amino-5-indanyl)-3-[4-(2-methoxycarbonyl-ethyl)-phenyl]-imidazolidin-2-one hydrochloride] are 170 nM and 370 nM.
On the same counts, the results for `Cn1c(-c2ccc(-c3ccc(C(=N)N)cc3)cc2)cn(CCC(=O)O)c1=O` [1(118), 4-(4'-amidino-4-biphenylyl)-1-(2-carboxy-ethyl)-3-methyl-3H-imidazol-2-onehydrochloride] are 170 nM and 460 nM.
On the same counts, the results for `N=C(N)c1ccc(-c2ccc(N3CCN(CCC(=O)O)S3(=O)=O)cc2)cc1` [1(21), 2-(4'-amidino-4-biphenylyl)-5-(2-carboxy-ethyl)-3,4-dihydro-2H,5H-1,2,5-thiadiazol-1,1-dioxide] are 31 nM and 620 nM.
For `COC(=O)C[S+]([O-])c1ccc(N2CCN(c3ccc(C(=N)N)cc3)C2=O)cc1` (stereo not shown) [18(5), 1-(4-amidino-phenyl)-3-(4-methoxycarbonylmethyl-sulphinyl-phenyl)-imidazolidin-2-one], in the test with Human Thrombocytes, the IC50 was found to be 420 nM. In test [1], the EC50 is 120 nM.
The corresponding values for `CCOC(=O)CCN1CCCN(c2ccc(-c3ccc(C(=N)N)cc3)cc2)C1=O` [2(4), 1-(4'-amidino-4-biphenylyl)-3-(2-ethoxycarbonyl-ethyl)-3,4,5,6-tetrahydro-1H-pyrimidin-2-one hydrochloride] are 15000 nM and 42000 nM.
On the same counts, the results for `Cc1nn(-c2ccc(C(=N)N)cc2)c(=O)n1-c1ccc(CCC(=O)OCC(C)C)cc1` [11(12), 2-(4-amidino-phenyl)-4-[4-(2-isobutyloxycarbonyl-ethyl)-phenyl]-5-methyl-4H-1,2,4-triazol-3-one hydrochloride] are 43 nM and 30 nM.
The corresponding values for `COC(=O)CCc1ccc(-n2ccn(-c3ccc(C(=N)N)cc3)c2=O)cc1` [2(58), 1-(4-amidino-phenyl)-3-[4-(2-methoxycarbonyl-ethyl)-phenyl]-3H-imidazol-2-one hydrochloride] are 4700 nM and 140 nM.

Source of the values: patent US5276049A, “Cyclic urea derivatives, pharmaceutical compositions containing these compounds and methods of using the same” (Dr. Karl Thomae GmbH, priority 1991, dated 1994).
